Values belong to the compound of their own block, whether it stands above or below them.
Tests used:
[1] = test system: rat; conditions: cited from earlier work
[2] = test system: mouse; conditions: administered chronically; cited from earlier work
[3] = test system: rat; conditions: cited from earlier work; remark: listed apart in the source
[4] = test system: amyloid precursor protein transgenic mice; conditions: after acute sleep restriction; cited from earlier work
[5] = test system: rats; conditions: cited from earlier work
[6] = test system: humans; conditions: cited from earlier work
[7] = test system: rat; conditions: cited from earlier work; remark: listed apart in the source
[8] = test system: rats; conditions: rats treated with the compound; cited from earlier work
[9] = test system: rats; conditions: fasted hungry rats exposed to food odors; cited from earlier work
[10] = molecular target: human orexin-2 receptor (Homo sapiens (Human), UniProt O43614); assay: In vitro assay: intracellular calcium measurements (FLIPR), antagonistic activity; assay type: cell-based; conditions: CHO cells expressing human orexin-2 receptor, orexin-A agonist, geometric mean, read-out: IC50 Ox2
Sequence of human orexin-2 receptor (O43614 whole entry): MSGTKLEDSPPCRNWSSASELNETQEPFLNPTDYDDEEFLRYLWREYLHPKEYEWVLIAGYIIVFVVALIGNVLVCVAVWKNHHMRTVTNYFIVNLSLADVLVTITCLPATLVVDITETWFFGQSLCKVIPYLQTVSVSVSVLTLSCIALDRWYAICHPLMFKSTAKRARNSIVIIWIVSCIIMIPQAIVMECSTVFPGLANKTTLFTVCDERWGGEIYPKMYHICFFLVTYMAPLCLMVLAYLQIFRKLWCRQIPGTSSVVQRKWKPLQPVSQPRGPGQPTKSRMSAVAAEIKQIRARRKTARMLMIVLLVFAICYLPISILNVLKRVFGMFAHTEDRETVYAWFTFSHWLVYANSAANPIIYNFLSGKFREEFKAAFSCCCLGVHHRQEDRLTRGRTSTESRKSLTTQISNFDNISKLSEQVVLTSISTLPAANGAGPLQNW
Outline: (§1)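 IC50s are geometric means, possibly reference-normalized, from FLIPR calcium peaks in CHO cells bearing human orexin-1 or orexin-2 receptor. Fluo-4 AM/probenecid-loaded cells received antagonist for 120 min before challenge with orexin-A (final 3 nM, ~EC70), with responses compared against vehicle controls.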

[11] = molecular target: human orexin-1 receptor (Homo sapiens (Human), UniProt O43613); assay: as above; assay type: cell-based; conditions: CHO cells expressing human orexin-1 receptor, orexin-A agonist, geometric mean, read-out: IC50 Ox1
Sequence of human orexin-1 receptor (O43613 whole entry): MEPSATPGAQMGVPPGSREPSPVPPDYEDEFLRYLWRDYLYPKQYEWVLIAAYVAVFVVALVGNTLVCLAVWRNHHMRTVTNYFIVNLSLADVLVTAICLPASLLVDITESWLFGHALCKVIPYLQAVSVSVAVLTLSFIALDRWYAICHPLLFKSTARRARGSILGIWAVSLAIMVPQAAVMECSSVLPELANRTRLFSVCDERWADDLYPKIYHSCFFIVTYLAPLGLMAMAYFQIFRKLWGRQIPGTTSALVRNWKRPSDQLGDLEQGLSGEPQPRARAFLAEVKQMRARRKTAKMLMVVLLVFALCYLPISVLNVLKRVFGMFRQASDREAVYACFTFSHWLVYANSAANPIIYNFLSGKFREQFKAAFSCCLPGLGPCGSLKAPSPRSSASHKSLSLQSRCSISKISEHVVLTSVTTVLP
Outline: as §1

[12] = Measurement of brain and systemic concentration after oral administration; assay type: in vivo; conditions: 3 h after oral administration (100 mg/kg), male wistar rats, n=3
Description: Measurement of Brain and Systemic Concentration after Oral Administration:
In order to assess brain penetration, the concentration of the compound is measured in plasma ([P]), and brain ([B]), sampled 3 h (or at different time points) following oral administration (e.g. 100 mg/kg) to male wistar rats. The compounds are formulated e.g. in 100% PEG 400. Samples are collected in the same animal at the same time point (+/−5 min).
Blood is sampled from the vena cava caudalis into containers with EDTA as anticoagulant and centrifuged to yield plasma. Brain is sampled after cardiac perfusion of 10 mL NaCl 0.9% and homogenized into one volume of cold phosphate buffer (pH 7.4). All samples are extracted with MeOH and analyzed by LC-MS/MS. Concentrations are determined with the help of calibration curves.

[13] = test system: Wistar rats; assay: Sedative effects: EEG, EMG and behavioural indices of alertness recorded by radiotelemetry in vivo; conditions: 30 mg/kg po; effects analyzed over 6 hours; compared to vehicle controls
Description: Sedative Effects: EEG, EMG and Behavioural Indices of Alertness Recorded by Radiotelemetry In Vivo in Wistar Rats.
Electroencephalography (EEG) and Electromyography (EMG) signals were measured by telemetry using TL11M2-F20-EET miniature radiotelemetric implants (Data Science Int.) with two pairs of differential leads.
Surgical implantation was performed under general anesthesia with Ketamin/Xylazin, for cranial placement of one differential pair of EEG electrodes and one pair of EMG leads inserted in either side of the muscles of the neck. After surgery, rats recovered in a thermoregulated chamber and received analgesic treatment with subcutaneous buprenorphine twice a day for 2 d. They were then housed individually and allowed to recover for a minimum of 2 weeks. Thereafter, rats—in their home cage—were placed in a ventilated sound-attenuating box, on a 12-h light/12-h dark cycle, for acclimatization before continuous EEG/EMG recordings started. The telemetric technology that we used in this study allows accurate and stress-free acquisition of biosignals in rats placed in their familiar home cage environment, with no recording leads restricting their movements. Variables analyzed included four different stages of vigilance and sleep, spontaneous activity in the home cage and body temperature. Sleep and wake stages were evaluated using a rodent scoring software (Somnologica Science) directly processing electrical biosignals on 10 s contiguous epochs. The scoring is based on frequency estimation for EEG and amplitude discrimination for EMG and locomotor activity. Using these measurements, the software determines the probability that all components within each epoch best represent active waking (AW), quiet waking (QW), non-REM-sleep (NREM) or REM-sleep (REM). The percentage of total time spent in AW, QW, NREM- and REM-sleep was calculated per 12 h light or dark period. The latency to the onset of the first significant NREM- and REM-sleep episodes and the frequency and duration of those episodes were also calculated. AW, QW, NREM- and REM-sleep, home cage activity and body temperature were measured at baseline for at least one total circadian cycle (12 h-night, 12 h-day) before a test compound was administered. […] All variables were subsequently recorded for 12 h following administration of the orexin receptor antagonist.

[14] = test system: rodents; conditions: cited from earlier work
[15] = test system: rodents; conditions: repeated amphetamine administration; cited from earlier work

Compound: CNC(=O)[C@@H](c1ccccc1)N1CCc2cc(OC)c(OC)cc2[C@@H]1CCc1ccc(C(F)(F)F)cc1 [(2R)-2-{(1S)-6,7-dimethoxy-1-[2-(4-trifluoromethyl-phenyl)-ethyl]-3,4-dihydro-1H-isoquinolin-2-yl}-N-methyl-2-phenyl-acetamide]
activity in fear-potentiated startle paradigm [1]: active | antidepressant-like activity [2]: induce antidepressant-like activity | pharmacological activity in nicotine self-administration [3]: displayed pharmacological activity | brain levels of amyloid-beta and Aβ plaque deposition [4]: decreased | cardiovascular responses to conditioned fear and novelty exposure [5]: attenuated | clinical efficacy in primary insomnia [6]: showed clinical efficacy | alertness (active wake and locomotion) [7]: decrease alertness | time spent in both REM and NREM sleep [7]: dose-dependently increase | learning and memory [8]: intact declarative and non-declarative learning and memory | natural activation induced by orexin A [9]: attenuate

IC50 [10]: 190 nM | IC50 [11]: 46 nM
Compound: COCCn1c([C@]2(C)CCCN2C(=O)c2cc(C)ccc2-c2cccc(OC)c2)nc2cc(C)c(C)cc21 [Ex. 7.53]

IC50 [10]: 270 nM | IC50 [11]: 87 nM
Compound: COCCn1c([C@]2(C)CCCN2C(=O)c2cc(C)ccc2-c2ccccc2F)nc2cc(C)c(C)cc21 [Ex. 7.54]

IC50 [10]: 53 nM | IC50 [11]: 56 nM
Compound: Cc1ccc(-n2nccn2)c(C(=O)N2C[C@@H](F)C[C@H]2c2nc3ccc(Cl)c(C)c3[nH]2)c1 [Example 2.1, ((2S,4S)-2-(6-chloro-7-methyl-1H-benzo[d]imidazol-2-yl)-4-fluoropyrrolidin-1-yl)(5-methyl-2-(2H-1,2,3-triazol-2-yl)phenyl)methanone]

IC50 [10]: 69 nM | IC50 [11]: 102 nM
Compound: CO[C@H]1C[C@@H](c2nc3ccc(Cl)c(C)c3[nH]2)N(C(=O)c2cc(C)ccc2-n2nccn2)C1 [Example 3.1, ((2S,4S)-2-(6-chloro-7-methyl-1H-benzo[d]imidazol-2-yl)-4-methoxypyrrolidin-1-yl)(5-methyl-2-(2H-1,2,3-triazol-2-yl)phenyl)methanone]

IC50 [10]: 778 nM | IC50 [11]: 29 nM
Compound: Cc1ccc(-n2nccn2)c(C(=O)N2CC[C@H](C)[C@H]2c2nc3cccc(C)c3[nH]2)c1 [Example 4.1, (5-methyl-2-(2H-1,2,3-triazol-2-yl)phenyl)((2S,3S)-3-methyl-2-(7-methyl-1H-benzo[d]imidazol-2-yl)pyrrolidin-1-yl)methanone]

IC50 [10]: 13 nM | IC50 [11]: 26 nM
Compound: Cc1nc(C(=O)N2CCC[C@@]2(C)c2nc3cccc(C)c3[nH]2)c(-c2ccccc2)s1 [Example 5.1, (S)-(2-methyl-2-(7-methyl-1H-benzo[d]imidazol-2-yl)pyrrolidin-1-yl)(2-methyl-5-phenylthiazol-4-yl)methanone]

IC50 [10]: 20 nM | IC50 [11]: 9 nM | concentration of the compound in brain [B] [12]: 3880 ng/g | concentration of the compound in plasma [P] [12]: 2095 ng/mL
Compound: Cc1ccc(-n2nccn2)c(C(=O)N2CCC[C@@]2(C)c2nc3cc(Br)cc(C)c3[nH]2)c1 [Example 5.19]
effect on NREM sleep [13]: +31% | effect on REM sleep [13]: +69% | effect on active wake [13]: −28% | effect on home cage activity [13]: −46%

Compound: COc1ccc(-n2nccn2)c(C(=O)N2CCC[C@@]2(C)c2nc3c(C)c(Cl)ccc3[nH]2)c1 [Example 5.36]
concentration of the compound in brain [B] [12]: 1808 ng/g | concentration of the compound in plasma [P] [12]: 1280 ng/mL | effect on NREM sleep [13]: +27% | effect on REM sleep [13]: +53% | effect on active wake [13]: −24% | effect on home cage activity [13]: −31%

IC50 [10]: 21 nM | IC50 [11]: 6 nM | concentration of the compound in brain [B] [12]: 5880 ng/g | concentration of the compound in plasma [P] [12]: 3560 ng/mL
Compound: Cc1ccc(-c2ncccn2)c(C(=O)N2CCC[C@@]2(C)c2nc3cc(Br)cc(C)c3[nH]2)c1 [Example 5.277]
effect on NREM sleep [13]: +21% | effect on REM sleep [13]: +52% | effect on active wake [13]: −22% | effect on home cage activity [13]: −42%

IC50 [10]: 33 nM | IC50 [11]: 367 nM
Compound: C=C1C[C@@H](c2nc3ccc(OC)cc3[nH]2)N(C(=O)c2nc(C)sc2-c2ccc(F)cc2)C1 [Example 6.1, (S)-(5-(4-fluorophenyl)-2-methylthiazol-4-yl)(2-(6-methoxy-1H-benzo[d]imidazol-2-yl)-4-methylenepyrrolidin-1-yl)methanone]

IC50 [10]: 6 nM | IC50 [11]: 7 nM
Compound: Cc1ccc(-n2nccn2)c(C(=O)N2CCC[C@@]2(C)c2nc3cc(Br)cc(C)c3n2C)c1 [Example 7.4, (S)-(2-(5-bromo-1,7-dimethyl-1H-benzo[d]imidazol-2-yl)-2-methylpyrrolidin-1-yl)(5-methyl-2-(2H-1,2,3-triazol-2-yl)phenyl)methanone]

Compound: Cn1c(SCC(=O)N2CCC[C@H]2C(=O)Nc2ccccc2-c2ccccc2)nc2ccccc21 [N-biphenyl-2-yl-1-{[(1-methyl-1H-benzimidazol-2-yl)sulfanyl]acetyl}-L-prolinamide]
nicotine-reinstatement for a conditioned reinforcer [14]: inhibited | behavioral (locomotor sensitization) and molecular (transcriptional responses) changes [15]: reduced

Compound: (S)-(2-(6-methoxy-1H-benzo[d]imidazol-2-yl)pyrrolidin-1-yl)(5-methyl-2-(2H-1,2,3-triazol-2-yl)phenyl)methanone [Example 1.1]
IC50 [10]: 108 nM | IC50 [11]: 1500 nM

From patent US9732075B2, “Benzimidazole-proline derivatives” (IDORSIA PHARMACEUTICALS LTD, priority 2012, dated 2017)
